Results: ChEMBL document CHEMBL3045802, “Synthesis and in vitro antitumor activity of new quinoline, pyrimido[4,5-b]quinoline, [1,2,3]triazino[4,5-b]quinoline, and [1,2,4]triazolo[2,3:3,4]pyrimido[6,5-b]quinoline analogs” (2013)

What was measured:
Assay type in all cases: functional
[1] = tested on: SK-MEL-28; assay: Cytotoxicity against Homo sapiens (human) SK-MEL-28 cells assessed as growth inhibition at 10 uM after 48 hr by coulter counter analysis; details: SK-MEL-28, 48 h, read-out: GI
[2] = tested on: LOX IMVI; assay: Cytotoxicity against Homo sapiens (human) LOXIMVI cells assessed as growth inhibition at 10 uM after 48 hr by coulter counter analysis; details: read-out: GI
[3] = tested on: SNB-75; assay: Cytotoxicity against Homo sapiens (human) SNB75 cells assessed as growth inhibition at 10 uM after 48 hr by coulter counter analysis; details: SNB-75, 48 h, read-out: GI
[4] = tested on: SF-295; assay: Cytotoxicity against Homo sapiens (human) SF295 cells assessed as growth inhibition at 10 uM after 48 hr by coulter counter analysis; details: SF-295, 48 h, read-out: GI
[5] = tested on: OVCAR-3; assay: Cytotoxicity against Homo sapiens (human) OVCAR3 cells assessed as growth inhibition at 10 uM after 48 hr by coulter counter analysis; details: OVCAR-3, 48 h, read-out: GI
[6] = tested on: UACC-257; assay: Cytotoxicity against Homo sapiens (human) UACC257 cells assessed as growth inhibition at 10 uM after 48 hr by coulter counter analysis; details: UACC-257, 48 h, read-out: GI
[7] = tested on: SK-MEL-5; assay: Cytotoxicity against Homo sapiens (human) SK-MEL-5 cells assessed as growth inhibition at 10 uM after 48 hr by coulter counter analysis; details: SK-MEL-5, 48 h, read-out: GI
[8] = tested on: MDA-MB-468; assay: Cytotoxicity against Homo sapiens (human) MDA-MB-468 cells assessed as growth inhibition at 10 uM after 48 hr by coulter counter analysis; details: MDA-MB-468, 48 h, read-out: GI
[9] = tested on: BT-549; assay: Cytotoxicity against Homo sapiens (human) BT549 cells assessed as growth inhibition at 10 uM after 48 hr by coulter counter analysis; details: BT-549, 48 h, read-out: GI
[10] = tested on: MDA-MB-231; assay: Cytotoxicity against Homo sapiens (human) MDA-MB-231 cells assessed as growth inhibition at 10 uM after 48 hr by coulter counter analysis; details: MDA-MB-231, 48 h, read-out: GI
[11] = tested on: MCF7; assay: Cytotoxicity against Homo sapiens (human) MCF7 cells assessed as growth inhibition at 10 uM after 48 hr by coulter counter analysis; details: MCF7, 48 h, read-out: GI
[12] = tested on: UO-31; assay: Cytotoxicity against Homo sapiens (human) UO31 cells assessed as growth inhibition at 10 uM after 48 hr by coulter counter analysis; details: UO-31, 48 h, read-out: GI
[13] = tested on: TK-10; assay: Cytotoxicity against Homo sapiens (human) TK10 cells assessed as growth inhibition at 10 uM after 48 hr by coulter counter analysis; details: TK-10, 48 h, read-out: GI
[14] = tested on: SN12C; assay: Cytotoxicity against Homo sapiens (human) SN12C cells assessed as growth inhibition at 10 uM after 48 hr by coulter counter analysis; details: read-out: GI
[15] = tested on: CAKI-1; assay: Cytotoxicity against Homo sapiens (human) Caki1 cells assessed as growth inhibition at 10 uM after 48 hr by coulter counter analysis; details: CAKI-1, 48 h, read-out: GI
[16] = tested on: ACHN; assay: Cytotoxicity against Homo sapiens (human) ACHN cells assessed as growth inhibition at 10 uM after 48 hr by coulter counter analysis; details: read-out: GI
[17] = tested on: 786-0; assay: Cytotoxicity against Homo sapiens (human) 786-0 cells assessed as growth inhibition at 10 uM after 48 hr by coulter counter analysis; details: 786-0, 48 h, read-out: GI
[18] = tested on: A498; assay: Cytotoxicity against Homo sapiens (human) A498 cells assessed as growth inhibition at 10 uM after 48 hr by coulter counter analysis; details: A498, 48 h, read-out: GI
[19] = tested on: SK-OV-3; assay: Cytotoxicity against Homo sapiens (human) SKOV3 cells assessed as growth inhibition at 10 uM after 48 hr by coulter counter analysis; details: SK-OV-3, 48 h, read-out: GI
[20] = Cytotoxicity against Homo sapiens (human) NCI-ADR-RES cells assessed as growth inhibition at 10 uM after 48 hr by coulter counter analysis; details: read-out: GI
[21] = tested on: OVCAR-5; assay: Cytotoxicity against Homo sapiens (human) OVCAR5 cells assessed as growth inhibition at 10 uM after 48 hr by coulter counter analysis; details: OVCAR-5, 48 h, read-out: GI
[22] = tested on: CCRF-CEM; assay: Cytotoxicity against Homo sapiens (human) CCRF-CEM cells assessed as growth inhibition at 10 uM after 48 hr by coulter counter analysis; details: read-out: GI
[23] = tested on: SF-268; assay: Cytotoxicity against Homo sapiens (human) SF268 cells assessed as growth inhibition at 10 uM after 48 hr by coulter counter analysis; details: SF-268, 48 h, read-out: GI
[24] = tested on: KM12; assay: Cytotoxicity against Homo sapiens (human) KM12 cells assessed as growth inhibition at 10 uM after 48 hr by coulter counter analysis; details: KM12, 48 h, read-out: GI
[25] = tested on: SW-620; assay: Cytotoxicity against Homo sapiens (human) SW620 cells assessed as growth inhibition at 10 uM after 48 hr by coulter counter analysis; details: SW-620, 48 h, read-out: GI
[26] = tested on: HT-29; assay: Cytotoxicity against Homo sapiens (human) HT-29 cells assessed as growth inhibition at 10 uM after 48 hr by coulter counter analysis; details: HT-29, 48 h, read-out: GI
[27] = tested on: HCT-116; assay: Cytotoxicity against Homo sapiens (human) HCT116 cells assessed as growth inhibition at 10 uM after 48 hr by coulter counter analysis; details: HCT-116, 48 h, read-out: GI
[28] = tested on: COLO 205; assay: Cytotoxicity against Homo sapiens (human) COLO205 cells assessed as growth inhibition at 10 uM after 48 hr by coulter counter analysis; details: COLO 205, 48 h, read-out: GI
[29] = tested on: NCI-H522; assay: Cytotoxicity against Homo sapiens (human) NCI-H522 cells assessed as growth inhibition at 10 uM after 48 hr by coulter counter analysis; details: NCI-H522, 48 h, read-out: GI
[30] = tested on: NCI-H460; assay: Cytotoxicity against Homo sapiens (human) NCI-H460 cells assessed as growth inhibition at 10 uM after 48 hr by coulter counter analysis; details: NCI-H460, 48 h, read-out: GI
[31] = tested on: EKVX; assay: Cytotoxicity against Homo sapiens (human) EKVX cells assessed as growth inhibition at 10 uM after 48 hr by coulter counter analysis; details: read-out: GI
[32] = tested on: SR; assay: Cytotoxicity against Homo sapiens (human) SR cells assessed as growth inhibition at 10 uM after 48 hr by coulter counter analysis; details: read-out: GI
[33] = tested on: MOLT-4; assay: Cytotoxicity against Homo sapiens (human) MOLT4 cells assessed as growth inhibition at 10 uM after 48 hr by coulter counter analysis; details: MOLT-4, 48 h, read-out: GI
[34] = tested on: K562; assay: Cytotoxicity against Homo sapiens (human) K562 cells assessed as growth inhibition at 10 uM after 48 hr by coulter counter analysis; details: K562, 48 h, read-out: GI

Compound | inhibition of growth at 10 µM [1] [%] | inhibition of growth at 10 µM [2] [%] | inhibition of growth at 10 µM [3] [%] | inhibition of growth at 10 µM [4] [%] | inhibition of growth at 10 µM [5] [%] | inhibition of growth at 10 µM [6] [%] | inhibition of growth at 10 µM [7] [%] | inhibition of growth at 10 µM [8] [%] | inhibition of growth at 10 µM [9] [%] | inhibition of growth at 10 µM [10] [%] | inhibition of growth at 10 µM [11] [%] | inhibition of growth at 10 µM [12] [%] | inhibition of growth at 10 µM [13] [%] | inhibition of growth at 10 µM [14] [%] | inhibition of growth at 10 µM [15] [%] | inhibition of growth at 10 µM [16] [%] | inhibition of growth at 10 µM [17] [%] | inhibition of growth at 10 µM [18] [%] | inhibition of growth at 10 µM [19] [%] | inhibition of growth at 10 µM [20] [%] | other results
O=c1[nH]nnc2c1C(c1ccc(Cl)cc1)C1=C(CCCC1)N2 (configuration not stated) | < 10 | < 10 | < 10 | < 10 | < 10 | < 10 | 13 | 13.3 | < 10 | < 10 | < 10 | 43.4 | < 10 | < 10 | 16.1 | < 10 | < 10 | 28.3 | < 10 | < 10 | inhibition of growth at 10 µM [21]: < 10%; inhibition of growth at 10 µM [22]: < 10%; inhibition of growth at 10 µM [23]: < 10%; inhibition of growth at 10 µM [24]: < 10%; inhibition of growth at 10 µM [25]: < 10%; inhibition of growth at 10 µM [26]: < 10%; inhibition of growth at 10 µM [27]: < 10%; inhibition of growth at 10 µM [28]: 13.5%; inhibition of growth at 10 µM [29]: 13.5%; inhibition of growth at 10 µM [30]: < 10%; inhibition of growth at 10 µM [31]: 10.9%; inhibition of growth at 10 µM [32]: < 10%; inhibition of growth at 10 µM [33]: < 10%; inhibition of growth at 10 µM [34]: < 10%
COc1ccc(C2C3=C(CCCC3)Nc3nn[nH]c(=O)c32)cc1OC (configuration not stated) | < 10 | < 10 | 28.3 | < 10 | < 10 | < 10 | 10.9 | 21.1 | < 10 | < 10 | < 10 | 48.6 | < 10 | 10.8 | 23.4 | 16 | < 10 | 13.2 | < 10 | < 10 | inhibition of growth at 10 µM [21]: 12.6%; inhibition of growth at 10 µM [22]: < 10%; inhibition of growth at 10 µM [23]: < 10%; inhibition of growth at 10 µM [24]: < 10%; inhibition of growth at 10 µM [25]: < 10%; inhibition of growth at 10 µM [26]: < 10%; inhibition of growth at 10 µM [27]: < 10%; inhibition of growth at 10 µM [28]: 15.9%; inhibition of growth at 10 µM [29]: < 10%; inhibition of growth at 10 µM [30]: < 10%; inhibition of growth at 10 µM [31]: < 10%; inhibition of growth at 10 µM [32]: < 10%; inhibition of growth at 10 µM [33]: < 10%; inhibition of growth at 10 µM [34]: < 10%
COc1ccc(C2C3=C(CCCC3)Nc3[nH]c(=S)nc(NC(N)=S)c32)cc1OC (configuration not stated) | < 10 | 16.1 | 20.3 | 14.4 | < 10 | < 10 | 25.5 | 14.2 | < 10 | 17.4 | < 10 | 43.5 | < 10 | < 10 | 10 | 11.4 | < 10 | < 10 | 18.6 | 11.7 | inhibition of growth at 10 µM [21]: < 10%; inhibition of growth at 10 µM [22]: < 10%; inhibition of growth at 10 µM [23]: < 10%; inhibition of growth at 10 µM [24]: 21.3%; inhibition of growth at 10 µM [25]: < 10%; inhibition of growth at 10 µM [26]: < 10%; inhibition of growth at 10 µM [27]: < 10%; inhibition of growth at 10 µM [28]: 12.8%; inhibition of growth at 10 µM [29]: 43.4%; inhibition of growth at 10 µM [30]: < 10%; inhibition of growth at 10 µM [31]: < 10%; inhibition of growth at 10 µM [32]: 40.6%; inhibition of growth at 10 µM [33]: < 10%; inhibition of growth at 10 µM [34]: 17.6%
